# Test results taken from US20260226068A1, “IMIDAZOTRIAZINE IL-17A MODULATORS AND USES THEREOF” (DICE ALPHA, INC., priority 2023, published 2026).
# What was measured:
# IL-17A/F = target: T1, IL-17A/F (Homo sapiens, UniProt Q16552+Q96PD4); experiment: IL-17A/F HEK-Blue cell assay (SEAP reporter); type: cell-based; conditions: HEK-Blue IL-17A reporter cells, IL17A/F 5 ng/mL, 20 hours, SEAP read at A630; read-out: HEK-Blue IL17AF (IC50 for IL-17A/F inhibition)
# T1 construct: purchased R&D Systems
# T1 sequence (Q16552 24-155): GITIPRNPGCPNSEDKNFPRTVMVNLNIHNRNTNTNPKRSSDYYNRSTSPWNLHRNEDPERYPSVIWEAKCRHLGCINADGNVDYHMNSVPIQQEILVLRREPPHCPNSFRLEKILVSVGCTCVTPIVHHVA
# T1 sequence (Q96PD4 31-163): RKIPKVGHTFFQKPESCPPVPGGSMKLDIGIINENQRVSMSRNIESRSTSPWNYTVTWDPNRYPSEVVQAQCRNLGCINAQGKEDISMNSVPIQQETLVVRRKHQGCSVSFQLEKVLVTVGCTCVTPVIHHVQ
# Method: (§1) The HEK-Blue IL-17A reporter cell line (Fisher #NC 1408637) was used for cell-based IL-17A/A inhibition assays. Cells were grown and prepared for assays according to the manufacturer's instructions. This cell line consists of HEK 293 cells that were designed to expressed IL-17RA, IL-17RC, and the Act1 adapter molecule, the combination of which, when stimulated by IL-17A/A or IL17A/F activates a […] promoter and drives expression of the recombinant Secreted Alkaline Phosphatase (SEAP) gene. Media from the cells is then added to a development reagent (Quanti-Blue Substrate, Fisher #NC971 1613), and read at A630.
# (§2) Compounds were dispensed in DMSO to an empty clear 384-well tissue culture plate in a titration ranging from 10 μM to 27 pM, with DMSO added to every well to a final concentration of […]. Cells were then added to the plate (45 μL/well at a concentration of 280,000 cells/mL). IL17A/A (Genscript #Z03228) or IL17A/F (R&D Systems) was added to the plate to a final concentration of 5 ng/mL and a final well volume of 50 μL. The cells, compound, and IL-17A/A or IL17A/F were then incubated for 20 hours before media was removed for SEAP analysis. The resulting inhibition curve was then analyzed using Dotmatics' integrated 4-parameter fit screening protocol to generate IC50 values.
# (§3) Table 2 includes IC50 values for IL-17A/A and IL-17A/F inhibition of selected compounds; with compounds having a IC50 of A<100 nM; B 100-1000 nM; and C>1000 nM.
# IL-17A/A = target: T2, IL-17A/A (Homo sapiens, UniProt Q16552); experiment: IL-17A/A HEK-Blue cell assay (SEAP reporter); type: cell-based; conditions: HEK-Blue IL-17A reporter cells, IL17A/A 5 ng/mL, 20 hours, SEAP read at A630; read-out: HEK-Blue IL17AA (IC50 for IL-17A/A inhibition)
# T2 construct: purchased Genscript Z03228
# T2 sequence (Q16552 24-155): T1 sequence (Q16552 24-155)
# Method: as §1, §2, §3
Structure (SMILES),IC50 (IL-17A/F),IC50 (IL-17A/A)
"CCn1nccc1C(=O)N[C@H](c1cn2nc(CC3C[C@@H](C(F)(F)F)CNC3=O)c(N3CCOCC3)nc2n1)C(C1CC1)C1CC1 (single isomer, unassigned) [Compound 111]",100 to 1000 nM,< 100 nM
"CCn1nccc1C(=O)N[C@H](c1cn2nc(CC3C[C@@H](C(F)(F)F)CNC3=O)c(N3CCOCC3)nc2n1)C(C1CC1)C1CC1 (single isomer, unassigned) [Compound 112]",100 to 1000 nM,< 100 nM
"O=C(N[C@H](c1cn2nc(CC3C[C@@H](C(F)(F)F)CNC3=O)c(N3CCOCC3)nc2n1)C1CCC(F)(F)CC1)c1conc1C1CC1(F)F (single isomer, unassigned) [Compound 113]",100 to 1000 nM,< 100 nM
"O=C(N[C@H](c1cn2nc(CC3C[C@@H](C(F)(F)F)CNC3=O)c(N3CCOCC3)nc2n1)C1CCC(F)(F)CC1)c1conc1C1CC1(F)F (single isomer, unassigned) [Compound 114]",> 1000 nM,< 100 nM
"O=C(N[C@H](c1cn2nc(CC3C[C@@H](C(F)(F)F)CNC3=O)c(N3CCOCC3)nc2n1)C1CCC(F)(F)CC1)c1conc1C1CC1(F)F (single isomer, unassigned) [Compound 115]",> 1000 nM,< 100 nM
"O=C(N[C@H](c1cn2nc(CC3C[C@@H](C(F)(F)F)CNC3=O)c(N3CCOCC3)nc2n1)C1CCC(F)(F)CC1)c1conc1C1CC1(F)F (single isomer, unassigned) [Compound 116]",> 1000 nM,< 100 nM
"C[C@H]1CC[C@H]([C@H](NC(=O)C2(F)CC2)c2cn3nc(CC4C[C@@H](C(F)(F)F)CNC4=O)c(N4CCOCC4)nc3n2)CC1 (single isomer, unassigned) [Compound 118]",> 1000 nM,100 to 1000 nM
"C[C@H]1CC[C@H]([C@H](NC(=O)C2(F)CC2)c2cn3nc(CC4C[C@@H](C(F)(F)F)CNC4=O)c(N4CCOCC4)nc3n2)CC1 (single isomer, unassigned) [Compound 120]",> 1000 nM,100 to 1000 nM
"CCn1nccc1C(=O)N[C@H](c1cn2nc(CC3C[C@@H](C(F)(F)F)CNC3=O)c(N3CCO[C@H](C)C3)nc2n1)[C@@H]1CCCC(F)(F)C1 (single isomer, unassigned) [Compound 124]",100 to 1000 nM,< 100 nM
"O=C(N[C@H](c1cn2nc(C[C@H]3C[C@@H](C(F)(F)F)CNC3=O)c(C3CCCOC3)nc2n1)[C@H]1CCCC(F)(F)C1)c1nonc1C1CC1 (single isomer, unassigned) [Compound 125]",> 1000 nM,< 100 nM
"O=C(N[C@H](c1cn2nc(C[C@H]3C[C@@H](C(F)(F)F)CNC3=O)c(C3CCCOC3)nc2n1)[C@H]1CCCC(F)(F)C1)c1nonc1C1CC1 (single isomer, unassigned) [Compound 126]",100 to 1000 nM,< 100 nM
"CC(C)n1nccc1C(=O)N[C@H](c1cn2nc(CC3C[C@@H](C(F)(F)F)CNC3=O)c(N3CC4CC(C3)O4)nc2n1)[C@H]1CCCC(F)(F)C1 (single isomer, unassigned) [Compound 128]",100 to 1000 nM,< 100 nM
"CC(C)n1nccc1C(=O)N[C@H](c1cn2nc(CC3C[C@@H](C(F)(F)F)CNC3=O)c(N3CC4CC(C3)O4)nc2n1)[C@@H]1CCCC(F)(F)C1 (single isomer, unassigned) [Compound 129]",100 to 1000 nM,< 100 nM
"CC(C)n1nccc1C(=O)N[C@H](c1cn2nc(CC3C[C@@H](C(F)(F)F)CNC3=O)c(N3CC4CC(C3)O4)nc2n1)[C@H]1CCCC(F)(F)C1 (single isomer, unassigned) [Compound 130]",> 1000 nM,< 100 nM
"CC(C)n1nccc1C(=O)N[C@H](c1cn2nc(CC3C[C@@H](C(F)(F)F)CNC3=O)c(N3CC4CC(C3)O4)nc2n1)[C@@H]1CCCC(F)(F)C1 (single isomer, unassigned) [Compound 131]",> 1000 nM,< 100 nM
"CC(C)n1nccc1C(=O)N[C@H](c1cn2nc(C[C@H]3C[C@@H](C(F)(F)F)CNC3=O)c(C3CCOC3)nc2n1)C1CCC(F)(F)CC1 (single isomer, unassigned) [Compound 132]",100 to 1000 nM,< 100 nM

Structure (SMILES),IC50 (IL-17A/F),IC50 (IL-17A/A)
"CC(C)n1nccc1C(=O)N[C@H](c1cn2nc(C[C@H]3C[C@@H](C(F)(F)F)CNC3=O)c(C3CCOC3)nc2n1)C1CCC(F)(F)CC1 (single isomer, unassigned) [Compound 133]",100 to 1000 nM,< 100 nM
"O=C(N[C@H](c1cn2nc(C[C@H]3C[C@@H](C(F)(F)F)CNC3=O)c(C3CCOC3)nc2n1)C1CCC(F)(F)CC1)c1nonc1C1CC1 (single isomer, unassigned) [Compound 134]",> 1000 nM,< 100 nM
"O=C(N[C@H](c1cn2nc(C[C@H]3C[C@@H](C(F)(F)F)CNC3=O)c(C3CCOC3)nc2n1)C1CCC(F)(F)CC1)c1nonc1C1CC1 (single isomer, unassigned) [Compound 135]",> 1000 nM,< 100 nM
"CCn1nccc1C(=O)N[C@H](c1cn2nc(C[C@H]3C[C@@H](C(F)(F)F)CNC3=O)c(C3CCOC3)nc2n1)[C@H]1CC[C@H](C)CC1 (single isomer, unassigned) [Compound 138]",< 100 nM,< 100 nM
"CCn1nccc1C(=O)N[C@H](c1cn2nc(C[C@H]3C[C@@H](C(F)(F)F)CNC3=O)c(C3CCOC3)nc2n1)[C@H]1CC[C@H](C)CC1 (single isomer, unassigned) [Compound 139]",< 100 nM,< 100 nM
"O=C(N[C@H](c1cn2nc(C[C@H]3C[C@@H](C(F)(F)F)CNC3=O)c(C3CCOCC3)nc2n1)C1CCC(F)(F)CC1)c1conc1C1CC1(F)F (single isomer, unassigned) [Compound 144]",100 to 1000 nM,< 100 nM
"O=C(N[C@H](c1cn2nc(C[C@H]3C[C@@H](C(F)(F)F)CNC3=O)c(C3CCOCC3)nc2n1)C1CCC(F)(F)CC1)c1conc1C1CC1(F)F (single isomer, unassigned) [Compound 145]",100 to 1000 nM,< 100 nM
"CCn1nccc1C(=O)N[C@@H](COC(C)(C)C(F)(F)F)c1cn2nc(C[C@H]3C[C@@H](C(F)(F)F)CNC3=O)c(C3CCOCC3)nc2n1 (single isomer, unassigned) [Compound 159]",> 1000 nM,< 100 nM
"CCn1nccc1C(=O)N[C@@H](CCC(C)(C)C(F)(F)F)c1cn2nc(C[C@H]3C[C@@H](C(F)(F)F)CNC3=O)c(C3CCOCC3)nc2n1 (single isomer, unassigned) [Compound 160]",100 to 1000 nM,< 100 nM
"CCn1nccc1C(=O)N[C@H](c1cn2nc(C[C@H]3C[C@@H](C(F)(F)F)CNC3=O)c(C3CCOC(C)(C)C3)nc2n1)C1CCC(F)(F)CC1 (single isomer, unassigned) [Compound 163]",100 to 1000 nM,< 100 nM
"CCn1nccc1C(=O)N[C@H](c1cn2nc(C[C@H]3C[C@@H](C(F)(F)F)CNC3=O)c(C3(C)CCCOC3)nc2n1)C1CCC(F)(F)CC1 (single isomer, unassigned) [Compound 165]",100 to 1000 nM,< 100 nM
"CCn1nccc1C(=O)N[C@H](c1cn2nc(C[C@H]3C[C@@H](C(F)(F)F)CNC3=O)c(C3(C)CCOC3)nc2n1)C1CCC(F)(F)CC1 (single isomer, unassigned) [Compound 166]",100 to 1000 nM,< 100 nM
"CCn1nccc1C(=O)N[C@H](c1cn2nc(C[C@H]3C[C@@H](C(F)(F)F)CNC3=O)c(C(C)C(F)(F)F)nc2n1)C1CCC(F)(F)CC1 (single isomer, unassigned) [Compound 174]",100 to 1000 nM,< 100 nM
"CCn1nccc1C(=O)N[C@H](c1cn2nc(C[C@H]3C[C@@H](C(F)(F)F)CNC3=O)c(C(C)C(F)(F)F)nc2n1)C1CCC(F)(F)CC1 (single isomer, unassigned) [Compound 175]",100 to 1000 nM,< 100 nM
"CCn1nccc1C(=O)N[C@H](c1cn2nc(C[C@H]3C[C@@H](C(F)(F)F)CNC3=O)c(C3CCOC(C)(C)C3)nc2n1)C1CCC(F)(F)CC1 (single isomer, unassigned) [Compound 176]",< 100 nM,< 100 nM
"CCn1nccc1C(=O)N[C@H](c1cn2nc(C[C@H]3C[C@@H](C(F)(F)F)CNC3=O)c(C3(C)CCCOC3)nc2n1)C1CCC(F)(F)CC1 (single isomer, unassigned) [Compound 177]",100 to 1000 nM,< 100 nM
